No end group written: not given here.
Tested on: antibodies formed against human papillomavirus (HPV)
Experiment: ELISA immunoassay of titer-plate-bound HPV peptides with subject serum (antibody-peptide complex, HRP anti-human IgG, TMB)
Format: binding
Conditions: serum of Subject 6 (low pre-test probability, no HPV DNA detected), diluted 1:25; absorbance read at 450 nm
Description: REACTI-BIND™ Maleic Anhydride Activated Polystyrene Plates (Pierce, Rockford, Ill.) may be employed. Each amino acid sequence may be diluted to 12.5 μg/mL with coating buffer (100 mM sodium bicarbonate buffer, pH 9.4). To each titer well, 100 μL (1.25 μg) of the diluted sequence solution may be added. The plate may then be incubated for one hour at room temperature with shaking. The plate may be emptied and residual liquid tapped onto a clean paper towel. Each well may be washed with 100 μL wash buffer (0.1% bovine serum albumin and 0.05% Tween-20 in phosphate buffered saline, pH 7.0). This may be repeated for a total of three times. Each time, the plate may be emptied and residual liquid tapped onto a clean paper towel. To each well, 200 μL of blocking solution (3% bovine serum albumin and 0.05% Tween-20 in phosphate buffered saline, pH 7.0) may be added.
Blocking solution may be left in each well for one minute. The titer plate may then be emptied by inversion. Filling with blocking solution and emptying may be done three times. Finished titer plates may be dried at room temperature and stored at 4° C. for up to four months.
For negative samples, serum may be obtained from virgin females, ages 14 and 15, and from adult sexually active, monogamous women, more than 25 years old, with histories of no Pap smear abnormalities and DNA verification of HPV absence. Positive samples consisted of serum obtained from females diagnosed with cervical cancer or precancerous disease. Subject and control sera may be diluted 1:25 with wash buffer (0.1% bovine serum albumin and […] in phosphate buffered saline, pH 7.0). To each well, 100 μL of diluted serum may be added, and the assay plate incubated for one hour at room temperature with shaking. Each well may then be rinsed three times, each with 200 μL wash buffer. Each rinse may be for five minutes. […]
The bottom of the titer plate may be cleaned with 70% ethanol, and the titer plate loaded into the spectrophotometer. Absorbance may be read at 450 nm, with […] of TMB solution plus […] of 2N HCl used as a blank control.

| Substance | absorbance values |
| --- | --- |
| HAGGQVILCPTSVFSSNEVSSPE [SEQ ID NO 3, 23 residues making up amino acids 187 through 209 of the HPV 16 E2 oncoprotein] | 0.49 |
| KHGYTVQFDGICNTMHY [SEQ ID NO 2, 17 residues making up amino acids 112 through 131 of the HPV 16 E2 oncoprotein] | 0.32 |
| Lys Gln Leu Gln His Thr Pro Ser Pro Tyr Ser Ser Thr Val Ser Val Gly Thr Ala Lys Thr Tyr [SEQ ID NO 1] | 0.44 |

From US6933123B2, “Peptides from the E2, E6, and E7 proteins of human papilloma viruses 16 and 18 for detecting and/or diagnosing cervical and other human papillomavirus associated cancers” (priority 2001, dated 2005)
